For orientation: EC50 means the concentration that produces a half-maximal response.

Data on 44 molecules can be found in patent US11661431B2, “Thienopyrrole compounds” (Gilead Sciences, Inc., priority 2021, dated 2023).

One test deals with TLR7 (Homo sapiens (Human), UniProt Q9NYK1). The test can be described thus: TLR7 human peripheral blood mononuclear cell (PBMC) cell-based assay (GS-986 as agonist; IL-6 and IFNα readout). Particulars: human PBMCs, TLR7 agonist GS-986 at 400 nM, 6 hours, antagonist potency; read-out: TLR-7 EC50. The procedure, abridged: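 IL-6 and IFNα released into supernatant were quantified by electrochemiluminescence immunoassay. Before that, human PBMCs at 100,000 per well received a 10-point antagonist titration for 1 h, then TLR7 agonist for 6 more hours, all at 37 °C, 5% CO2.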

The next test concerns the target TLR8 (Homo sapiens (Human), UniProt Q9NR97). The experiment in a line: TLR8 human peripheral blood mononuclear cell (PBMC) cell-based assay (Compound A as agonist; TNFα and IL12p40 readout). Particulars: human PBMCs, TLR8 agonist Compound A at 800 nM, 6 hours, antagonist potency; read-out: TLR-8 EC50.

TLR7, sequence (Q9NYK1 27-1049): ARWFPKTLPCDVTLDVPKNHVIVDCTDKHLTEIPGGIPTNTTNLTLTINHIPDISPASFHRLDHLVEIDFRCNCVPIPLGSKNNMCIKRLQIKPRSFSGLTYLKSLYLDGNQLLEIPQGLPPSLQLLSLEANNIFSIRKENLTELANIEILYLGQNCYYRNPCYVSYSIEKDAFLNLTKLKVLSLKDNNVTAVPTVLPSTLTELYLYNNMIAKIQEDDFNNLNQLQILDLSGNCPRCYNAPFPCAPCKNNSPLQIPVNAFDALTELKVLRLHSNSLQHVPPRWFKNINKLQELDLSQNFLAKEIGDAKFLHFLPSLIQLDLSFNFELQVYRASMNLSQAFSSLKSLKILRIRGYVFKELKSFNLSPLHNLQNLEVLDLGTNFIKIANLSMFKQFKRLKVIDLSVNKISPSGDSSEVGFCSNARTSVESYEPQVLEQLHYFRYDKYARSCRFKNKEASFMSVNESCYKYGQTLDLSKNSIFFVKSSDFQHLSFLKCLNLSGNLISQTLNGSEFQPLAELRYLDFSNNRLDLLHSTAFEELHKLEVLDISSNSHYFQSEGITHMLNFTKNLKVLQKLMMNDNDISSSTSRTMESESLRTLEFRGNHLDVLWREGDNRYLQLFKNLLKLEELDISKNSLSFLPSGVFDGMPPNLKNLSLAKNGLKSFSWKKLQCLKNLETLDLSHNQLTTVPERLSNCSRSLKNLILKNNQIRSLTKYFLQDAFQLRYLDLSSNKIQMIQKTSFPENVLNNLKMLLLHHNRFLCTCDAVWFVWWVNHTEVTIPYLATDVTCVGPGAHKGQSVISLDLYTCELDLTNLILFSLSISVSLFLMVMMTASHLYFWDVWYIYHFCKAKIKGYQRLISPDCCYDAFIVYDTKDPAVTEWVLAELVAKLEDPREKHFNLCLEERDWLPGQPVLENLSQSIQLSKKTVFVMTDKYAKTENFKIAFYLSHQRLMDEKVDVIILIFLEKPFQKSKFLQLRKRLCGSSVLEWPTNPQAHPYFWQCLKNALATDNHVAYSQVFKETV
TLR8, sequence (Q9NR97 27-1041): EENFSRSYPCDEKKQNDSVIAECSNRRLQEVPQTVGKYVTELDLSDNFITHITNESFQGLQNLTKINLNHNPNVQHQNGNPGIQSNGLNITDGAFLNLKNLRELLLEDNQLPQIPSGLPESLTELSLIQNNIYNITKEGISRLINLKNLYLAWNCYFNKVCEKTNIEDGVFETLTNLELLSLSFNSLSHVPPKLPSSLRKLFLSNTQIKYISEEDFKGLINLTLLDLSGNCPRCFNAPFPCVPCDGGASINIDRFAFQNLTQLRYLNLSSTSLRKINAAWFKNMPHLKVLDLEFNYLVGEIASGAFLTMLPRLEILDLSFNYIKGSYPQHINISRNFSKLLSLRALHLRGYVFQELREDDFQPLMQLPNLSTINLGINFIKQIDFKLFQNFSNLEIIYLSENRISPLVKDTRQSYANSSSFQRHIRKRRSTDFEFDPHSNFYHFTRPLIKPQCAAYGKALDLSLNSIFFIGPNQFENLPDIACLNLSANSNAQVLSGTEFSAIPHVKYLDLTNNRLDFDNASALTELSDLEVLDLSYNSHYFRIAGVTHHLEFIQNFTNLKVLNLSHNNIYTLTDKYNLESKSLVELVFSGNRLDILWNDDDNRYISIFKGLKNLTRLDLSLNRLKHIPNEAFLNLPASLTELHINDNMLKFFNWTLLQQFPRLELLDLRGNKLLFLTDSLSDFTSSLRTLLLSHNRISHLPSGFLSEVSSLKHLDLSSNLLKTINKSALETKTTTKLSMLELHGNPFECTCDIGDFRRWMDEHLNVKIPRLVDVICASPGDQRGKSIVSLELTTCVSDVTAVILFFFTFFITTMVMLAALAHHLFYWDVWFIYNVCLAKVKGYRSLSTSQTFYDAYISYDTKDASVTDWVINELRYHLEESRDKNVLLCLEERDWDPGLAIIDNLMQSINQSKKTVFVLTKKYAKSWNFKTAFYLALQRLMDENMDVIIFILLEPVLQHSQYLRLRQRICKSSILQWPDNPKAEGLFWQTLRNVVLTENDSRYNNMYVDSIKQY

With `Cc1c(C2CC3(CCN(CC(N)=O)CC3)C2)sc2[nH]c(-c3cc(C)c4ncnn4c3)c(C(C)C)c12` [Example 124], the results for the EC50 at TLR7 and on TLR8 were 0.3 nM and 3.22 nM, respectively.
Taken in the same sequence, the figures for `Cc1cc(-c2[nH]c3sc([C@H]4C[C@@]5(CCNC5)C4)c(C)c3c2C(C)C)cn2ncnc12` [Example 125] were 0.33 nM and 1.5 nM.
Taken in the same sequence, the figures for `Cc1cc(-c2[nH]c3sc([C@H]4C[C@@]5(CCN(CC(N)=O)C5)C4)c(C)c3c2C(C)C)cn2ncnc12` [Example 126] were 0.24 nM and 1.74 nM.
Taken in the same sequence, the figures for `Cc1c(C2CCNC2)sc2[nH]c(-c3cc(C)c4ncnn4c3)c(C(C)C)c12` (stereo not shown) [Example 127] were 0.21 nM and 1.52 nM.
Consider `Cc1c(C2CCC3(CCNCC3)C2)sc2[nH]c(-c3cc(C)c4ncnn4c3)c(C(C)C)c12` (stereo not shown) [Example 129], for which the results for the EC50 on TLR7 and at TLR8 were 0.27 nM and 10.7 nM, respectively.
For the molecule `Cc1nc2c(C)cc(-c3[nH]c4sc(C5CCNCC5)c(C)c4c3C(C)C)cn2n1` [Example 131], the concentration giving a half-maximal response (EC50) at TLR7 was determined as 0.12 nM; at TLR8 it was 6.92 nM.
For `Cc1cc(-c2[nH]c3sc([C@H]4C[C@]5(CCN(CC(N)=O)C5)C4)c(C)c3c2C(C)C)cn2ncnc12` [Example 132], the EC50 at TLR7 is 0.1 nM; at TLR8, 0.54 nM.
On to `Cc1c(C2CCC3(CCN(CC(N)=O)CC3)C2)sc2[nH]c(-c3cc(C)c4ncnn4c3)c(C(C)C)c12` (stereo not shown) [Example 133], for which the EC50 on TLR7 turned out to be 0.6 nM; at TLR8, 5.06 nM.
In the case of `Cc1nc2c(C)cc(-c3[nH]c4sc(C5CCN(CC(N)=O)CC5)c(C)c4c3C(C)C)cn2n1` [Example 134], the EC50 at TLR7 amounted to 0.74 nM; at TLR8, 12.6 nM.
The like results for `Cc1nc2c(C)cc(-c3[nH]c4sc(C5CCN(C(=O)[C@H]6COCCN6)CC5)c(C)c4c3C(C)C)cn2n1` [Example 135] were, in that order, 0.28 nM and 27 nM.
Taken in the same sequence, the figures for `Cc1nc2c(C)cc(-c3[nH]c4sc(C5CCN(C(=O)[C@@H]6COCCN6)CC5)c(C)c4c3C(C)C)cn2n1` [Example 136] were 0.68 nM and 17.9 nM.
For `Cc1c(C2CC3(CCCNC3)C2)sc2[nH]c(-c3cc(C)c4ncnn4c3)c(C(C)C)c12` (stereo not shown) [Example 137], the figures for the EC50 at TLR7 and at TLR8 were 0.73 nM and 1.71 nM, respectively.
With `Cc1c(C2CC3(CCCN3)C2)sc2[nH]c(-c3cc(C)c4ncnn4c3)c(C(C)C)c12` (stereo not shown) [Example 138], the EC50 came out at 0.19 nM on TLR7 and 0.49 nM at TLR8.
The like results for `Cc1c(-c2[nH]c3sc([C@@H]4C[C@@H]5C[C@H]4CN5CC(N)=O)c(C)c3c2C(C)C)cn2nc(Cl)nc2c1C` [Example 139] were, in that order, 0.54 nM and 0.29 nM.
On to `Cc1c(C2CC3(CCCN3CC(N)=O)C2)sc2[nH]c(-c3cc(C)c4ncnn4c3)c(C(C)C)c12` (stereo not shown) [Example 140], for which the EC50 on TLR7 was 0.91 nM; on TLR8, 3.45 nM.
Regarding `Cc1cc(-c2[nH]c3sc([C@H]4C[C@@]5(CCCN(CC(N)=O)C5)C4)c(C)c3c2C(C)C)cn2ncnc12` [Example 141], the EC50 on TLR7 came out at 0.42 nM; at TLR8 it was 10.6 nM.
As to `Cc1cc(-c2[nH]c3sc([C@H]4C[C@]5(CCCN(CC(N)=O)C5)C4)c(C)c3c2C(C)C)cn2ncnc12` [Example 142], the 50% effective concentration (EC50) at TLR7 was found to be 2.31 nM; at TLR8, 7.47 nM.
Taken in the same sequence, the figures for `Cc1c(-c2[nH]c3sc(C4CCN(C(=O)[C@@H]5C[C@@H]6OCC[C@@H]6N5)CC4)c(C)c3c2C(C)C)cn2ncnc2c1C` [Example 143] were 2.57 nM and 10.9 nM.
Regarding `Cc1c(-c2[nH]c3sc(C4CCC5(CC4)CNCCO5)c(C)c3c2C(C)C)cn2ncnc2c1C` (stereo not shown) [Example 144, 9-(5-(7,8-dimethyl-[1,2,4]triazolo[1,5-a]pyridin-6-yl)-4-isopropyl-3-methyl-6H-thieno[2,3-b]pyrrol-2-yl)-1-oxa-4-azaspiro[5.5]undecane], the EC50 was 0.25 nM on TLR7 and 2.03 nM at TLR8.
The like results for `Cc1c([C@H]2C[C@H]3C[C@@H]2CN3CC(N)=O)sc2[nH]c(-c3cc(C)c4ncnn4c3)c(C(C)C)c12` [Example 145] were, in that order, 0.09 nM and 1.86 nM.
`Cc1c(-c2[nH]c3sc([C@@H]4C[C@@H]5C[C@H]4CN5C(=O)[C@H]4COCCN4)c(C)c3c2C(C)C)cn2ncnc2c1C` [Example 146]: the EC50 came out at 0.9 nM on TLR7 and 12.8 nM on TLR8.
Regarding `Cc1c(-c2[nH]c3sc([C@@H]4C[C@@H]5C[C@H]4CN5C(=O)[C@H]4C[C@@H](F)CN4)c(C)c3c2C(C)C)cn2ncnc2c1C` [Example 147], the EC50 at TLR7 amounted to 0.23 nM; at TLR8, 16 nM.
As to `Cc1c(-c2[nH]c3sc([C@@H]4C[C@@H]5C[C@H]4CN5C(=O)[C@H]4C[C@H](F)CN4)c(C)c3c2C(C)C)cn2ncnc2c1C` [Example 148], the figures for the EC50 at TLR7 and on TLR8 were 0.51 nM and 15.9 nM, respectively.
The like results for `Cc1c(-c2[nH]c3sc([C@@H]4C[C@@H]5C[C@H]4CN5C(=O)[C@@H]4C[C@H](F)CN4)c(C)c3c2C(C)C)cn2ncnc2c1C` [Example 149] were, in that order, 0.72 nM and 9.53 nM.
For the molecule `Cc1c(-c2[nH]c3sc([C@@H]4C[C@@H]5C[C@H]4CN5C(=O)[C@@H]4C[C@@H](F)CN4)c(C)c3c2C(C)C)cn2ncnc2c1C` [Example 150], the EC50 was found to be 1.64 nM at TLR7 and 14.2 nM on TLR8.
The like results for `Cc1c(-c2[nH]c3sc(C4CC(C(=O)N5CCNCC5)C4)c(C)c3c2C(C)C)cn2ncnc2c1C` (stereo not shown) [Example 151, (3-(5-(7,8-dimethyl-[1,2,4]triazolo[1,5-a]pyridin-6-yl)-4-isopropyl-3-methyl-6H-thieno[2,3-b]pyrrol-2-yl)cyclobutyl)(piperazin-1-yl)methanone] were, in that order, 0.26 nM and 0.99 nM.
The like results for `Cc1c(-c2[nH]c3sc([C@@H]4C[C@@H]5C[C@H]4CN5Cc4n[nH]c(=O)[nH]4)c(C)c3c2C(C)C)cn2ncnc2c1C` [Example 152] were, in that order, 0.42 nM and 2.86 nM.
Taken in the same sequence, the figures for `Cc1c(-c2[nH]c3sc([C@@H]4C[C@@H]5C[C@H]4CN5C4(CC#N)CN(S(C)(=O)=O)C4)c(C)c3c2C(C)C)cn2ncnc2c1C` [Example 153] were 0.77 nM and 23.2 nM.
On to `Cc1c(-c2[nH]c3sc([C@@H]4C[C@@H]5C[C@H]4CN5Cc4ccc(Br)cc4)c(C)c3c2C(C)C)cn2ncnc2c1C` [Example 154], for which the EC50 at TLR7 was 0.44 nM; on TLR8, 0.85 nM.
Regarding `Cc1c(-c2[nH]c3sc([C@@H]4C[C@@H]5C[C@H]4CN5CC(=O)N=S(C)(C)=O)c(C)c3c2C(C)C)cn2ncnc2c1C` [Example 155], the EC50 was < 0.05 nM on TLR7 and 0.51 nM on TLR8.
Taken in the same sequence, the figures for `Cc1c(C2CCN(S(=O)(=O)N3CCNCC3)CC2)sc2[nH]c(-c3cc(C)c4ncnn4c3)c(C(C)C)c12` [Example 156] were < 0.05 nM and 9.8 nM.
On to `Cc1c(C2CCN(S(=O)(=O)N3CCN(C)CC3)CC2)sc2[nH]c(-c3cc(C)c4ncnn4c3)c(C(C)C)c12` [Example 157], for which the figures for the EC50 on TLR7 and on TLR8 were 0.17 nM and 29.6 nM, respectively.
Consider `Cc1c(C2CCN(C(=O)[C@H]3COC(C)(C)CN3)CC2)sc2[nH]c(-c3cc(C)c4ncnn4c3)c(C(C)C)c12` [Example 158], for which the EC50 is 0.15 nM on TLR7 and 61.8 nM at TLR8.
Consider `Cc1c(C2CCN(C(=O)[C@@H]3COC(C)(C)CN3)CC2)sc2[nH]c(-c3cc(C)c4ncnn4c3)c(C(C)C)c12` [Example 159], for which the EC50 on TLR7 amounted to 0.94 nM; on TLR8 it was 31.5 nM.
`COCc1c(C2CCN(CC(N)=O)CC2)sc2[nH]c(-c3cc(C)c4ncnn4c3)c(C(C)C)c12` [Example 160]: the figures for the EC50 on TLR7 and at TLR8 were 0.26 nM and 6.51 nM, respectively.
On to `Cc1c(C2CCCN(CC(N)=O)CC2)sc2[nH]c(-c3cc(C)c4ncnn4c3)c(C(C)C)c12` (stereo not shown) [Example 161, 2-(4-(4-isopropyl-3-methyl-5-(8-methyl-[1,2,4]triazolo[1,5-a]pyridin-6-yl)-6H-thieno[2,3-b]pyrrol-2-yl)azepan-1-yl)acetamide], for which the EC50 on TLR7 came to 0.13 nM; at TLR8, 7.29 nM.
The like results for `Cc1cc(-c2[nH]c3sc(C4CCN(CC(N)=O)CC4)c(C(F)F)c3c2C(C)C)cn2ncnc12` [Example 162] were, in that order, 3.41 nM and 24.3 nM.
Turning to `Cc1c(-c2[nH]c3sc([C@@H]4C[C@@H]5C[C@H]4CN5CC(=O)N(C)C)c(C)c3c2C(C)C)cn2ncnc2c1C` [Example 163], the values for the EC50 at TLR7 and at TLR8 were 0.3 nM and 0.38 nM, respectively.
Turning to `Cc1c(-c2[nH]c3sc([C@@H]4C[C@@H]5C[C@H]4CN5CCCS(C)(=O)=O)c(C)c3c2C(C)C)cn2ncnc2c1C` [Example 164], the EC50 was 0.23 nM at TLR7 and < 0.05 nM on TLR8.
In the case of `Cc1c(-c2[nH]c3sc([C@@H]4C[C@@H]5C[C@H]4CN5CC#N)c(C)c3c2C(C)C)cn2ncnc2c1C` [Example 165], the results for the EC50 on TLR7 and on TLR8 were 0.13 nM and 0.41 nM, respectively.
As for `Cc1c(-c2[nH]c3sc([C@@H]4C[C@@H]5C[C@H]4CN5CCC#N)c(C)c3c2C(C)C)cn2ncnc2c1C` [Example 166], the EC50 on TLR7 came to 1.2 nM; at TLR8 it was 0.48 nM.
Taken in the same sequence, the figures for `Cc1c(-c2[nH]c3sc([C@@H]4C[C@@H]5C[C@H]4CN5C4COC4)c(C)c3c2C(C)C)cn2ncnc2c1C` [Example 167] were 0.09 nM and 0.45 nM.
The like results for `Cc1c(-c2[nH]c3sc([C@@H]4C[C@@H]5C[C@H]4CN5C4CCS(=O)(=O)CC4)c(C)c3c2C(C)C)cn2ncnc2c1C` [Example 168] were, in that order, 0.74 nM and 0.96 nM.
As to `Cc1c(-c2[nH]c3sc([C@@H]4C[C@@H]5C[C@H]4CN5C4CC5(C4)CS(=O)(=O)C5)c(C)c3c2C(C)C)cn2ncnc2c1C` [Example 169], the EC50 at TLR7 turned out to be 0.29 nM; at TLR8, 0.07 nM.
